# Measured values from patent US12351580B2, “NLRP3 modulators” (Innate Tumor Immunity, Inc., priority 2017, dated 2025).
# Target: T1, TLR8 (Homo sapiens, UniProt Q9NR97)
# T1 construct: host or cells: HEK-Blue cells (human HEK) co-expressing TLR8 and an NF-kB/AP1-inducible SEAP reporter
# T1 sequence (Q9NR97 27-1041): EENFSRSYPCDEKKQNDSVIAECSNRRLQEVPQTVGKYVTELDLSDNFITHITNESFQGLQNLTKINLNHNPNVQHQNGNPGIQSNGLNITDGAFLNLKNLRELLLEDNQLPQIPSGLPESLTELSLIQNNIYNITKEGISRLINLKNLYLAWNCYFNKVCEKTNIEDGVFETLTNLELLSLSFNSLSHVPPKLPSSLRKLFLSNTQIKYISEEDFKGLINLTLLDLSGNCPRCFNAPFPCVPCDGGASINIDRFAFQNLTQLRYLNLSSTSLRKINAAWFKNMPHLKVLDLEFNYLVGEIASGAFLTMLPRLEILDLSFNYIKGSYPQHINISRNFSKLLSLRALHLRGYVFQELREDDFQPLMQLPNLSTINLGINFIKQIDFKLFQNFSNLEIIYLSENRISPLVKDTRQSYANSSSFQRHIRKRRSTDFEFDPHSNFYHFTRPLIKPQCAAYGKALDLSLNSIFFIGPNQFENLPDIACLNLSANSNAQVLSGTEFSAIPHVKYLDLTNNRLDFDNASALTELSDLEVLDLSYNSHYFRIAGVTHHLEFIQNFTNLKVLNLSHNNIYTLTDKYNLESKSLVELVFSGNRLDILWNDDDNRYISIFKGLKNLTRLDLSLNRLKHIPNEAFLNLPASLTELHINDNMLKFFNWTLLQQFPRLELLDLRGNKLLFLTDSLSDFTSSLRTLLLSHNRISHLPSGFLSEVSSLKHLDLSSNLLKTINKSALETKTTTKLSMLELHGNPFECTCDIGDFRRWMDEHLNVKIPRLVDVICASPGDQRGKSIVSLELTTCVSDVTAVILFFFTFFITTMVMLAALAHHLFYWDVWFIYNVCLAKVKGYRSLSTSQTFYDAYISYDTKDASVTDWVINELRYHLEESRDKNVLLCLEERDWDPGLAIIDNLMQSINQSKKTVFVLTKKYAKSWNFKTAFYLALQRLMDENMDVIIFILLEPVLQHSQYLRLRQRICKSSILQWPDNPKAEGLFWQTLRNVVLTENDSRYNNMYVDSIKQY
# Experiment: In vitro human TLR8 binding reporter assay (HEK-Blue, NF-kB/AP1-inducible SEAP)
# Assay type: cell-based
# Conditions: activity range symbols
# Method in brief: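 Reporter cells are plated at 15,000 per well and rested 24 h. Next day, test compounds or DMSO are dispensed, followed by 18 h incubation at 37 °C, 5% CO2.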
row,SMILES,EC50 [µM]
1,CCC(=O)NCc1nc2c(N)nc3cc(-c4cc[nH]n4)ccc3c2[nH]1 [Compound 111],> 100
2,CCN(Cc1nc2c(N)nc3cc(-c4cc[nH]n4)ccc3c2[nH]1)C(=O)c1nccs1 [Compound 114],> 100
3,CN(Cc1nc2c(N)nc3cc(-c4cc[nH]n4)ccc3c2[nH]1)S(C)(=O)=O [Compound 115],> 100
4,CC(c1nc2c(N)nc3cc(-n4cccn4)ccc3c2[nH]1)N1CCCC1=O (stereo not drawn) [Compound 117],> 100
5,CCN(Cc1nc2c(N)nc3cc(-c4cc[nH]n4)ccc3c2[nH]1)C(=O)C1CC1 [Compound 118],> 100
6,"Nc1nc2cc(-c3cccs3)ccc2c2[nH]c(CN3CCCC3=O)nc12 [Compound 309, 1-[(4-amino-7-thiophen-2-yl-1H-imidazo[4,5-c]quinolin-2-yl)methyl]pyrrolidin-2-one]",> 100
7,"N#Cc1ccccc1-c1ccc2c(c1)nc(N)c1nc(CN3CCCC3=O)[nH]c12 [Compound 315, 2-[4-amino-2-[(2-oxopyrrolidin-l-yl)methyl]-1H-imidazo[4,5-c]quinolin-7-yl]benzonitrile]",> 100

# Further lines, results first:
row,EC50 [µM],SMILES
1,> 100,"Nc1nc2cc(Br)ccc2c2[nH]c(CN3CC(c4ccccc4)CC3=O)nc12 (stereo not drawn) [Compound 316, 1-[(4-amino-7-bromo-1H-imidazo[4,5-c]quinolin-2-yl)methyl]-4-phenylpyrrolidin-2-one]"
2,> 100,"COc1ncccc1-c1ccc2c(c1)nc(N)c1nc(CN3CCCC3=O)[nH]c12 [Compound 319, 1-[[4-amino-7-(2-methoxypyridin-3-yl)-1H-imidazo[4,5-c]quinolin-2-yl]methyl]pyrrolidin-2-one]"
3,> 100,"Nc1nc2cc(-c3cccnc3Cl)ccc2c2[nH]c(CN3CCCC3=O)nc12 [Compound 320, 1-[[4-amino-7-(2-chloropyridin-3-yl)-1H-imidazo[4,5-c]quinolin-2-yl]methyl]pyrrolidin-2-one]"
4,> 100,"Nc1nc2cc(-c3cnccc3Cl)ccc2c2[nH]c(CN3CCCC3=O)nc12 [Compound 321, 1-[[4-amino-7-(4-chloropyridin-3-yl)-1H-imidazo[4,5-c]quinolin-2-yl]methyl]pyrrolidin-2-one]"
5,> 100,"Nc1nc2cc(-c3ccc(C(F)(F)F)nc3)ccc2c2[nH]c(CN3CCCC3=O)nc12 [Compound 324, 1-[[4-amino-746-(trifluoromethyppyridin-3-yl]-1H-imidazo[4,5-c]quinolin-2-yl]methyl]pyrrolidin-2-one]"
6,> 100,"N#Cc1cncc(-c2ccc3c(c2)nc(N)c2nc(CN4CCCC4=O)[nH]c23)c1 [Compound 326, 5-[4-amino-2-[(2-oxopyrrolidin-l-yl)methyl]-1H-imidazo[4,5-c]quinolin-7-yl]pyridine-3-carbonitrile]"
7,> 100,"N#Cc1ccc(-c2ccc3c(c2)nc(N)c2nc(CN4CCCC4=O)[nH]c23)cn1 [Compound 327, 5-[4-amino-2-[(2-oxopyrrolidin-l-yl)methyl]-1H-imidazo[4,5-c]quinolin-7-yl]pyridine-2-carbonitrile]"
8,> 100,"Nc1nc2cc(-c3cncc(Cl)c3)ccc2c2[nH]c(CN3CCCC3=O)nc12 [Compound 328, 1-[[4-amino-7-(5-chloropyridin-3-yl)-1H-imidazo[4,5-c]quinolin-2-yl]methyl]pyrrolidin-2-one]"
9,> 100,"Nc1nc2cc(-c3ccc(F)nc3)ccc2c2[nH]c(CN3CCCC3=O)nc12 [Compound 330, 1-[[4-amino-7-(6-fluoropyridin-3-yl)-1H-imidazo[4,5-c]quinolin-2-yl]methyl]pyrrolidin-2-one]"
10,> 100,"Nc1nc2cc(-c3cncc(F)c3)ccc2c2[nH]c(CN3CCCC3=O)nc12 [Compound 331, 1-[[4-amino-7-(5-fluoropyridin-3-yl)-1H-imidazo[4,5-c]quinolin-2-yl]methyl]pyrrolidin-2-one]"
11,> 100,"Nc1nc2cc(C3CCCCCC3)ccc2c2[nH]c(CN3CCCC3=O)nc12 [Compound 332, 1-[(4-amino-7-cycloheptyl-1H-imidazo[4,5-c]quinolin-2-yl)methyl]pyrrolidin-2-one]"
